Patent US4870183A, “Novel amino acid derivatives” (priority 1986, dated 1989)

Assays:
[1] = target: T1, human renin (Homo sapiens, UniProt P00797); assay: Inhibitory effect on human renin-sheep renin substrate reaction system in vitro; assay type: biochemical
T1 sequence (P00797 67-406): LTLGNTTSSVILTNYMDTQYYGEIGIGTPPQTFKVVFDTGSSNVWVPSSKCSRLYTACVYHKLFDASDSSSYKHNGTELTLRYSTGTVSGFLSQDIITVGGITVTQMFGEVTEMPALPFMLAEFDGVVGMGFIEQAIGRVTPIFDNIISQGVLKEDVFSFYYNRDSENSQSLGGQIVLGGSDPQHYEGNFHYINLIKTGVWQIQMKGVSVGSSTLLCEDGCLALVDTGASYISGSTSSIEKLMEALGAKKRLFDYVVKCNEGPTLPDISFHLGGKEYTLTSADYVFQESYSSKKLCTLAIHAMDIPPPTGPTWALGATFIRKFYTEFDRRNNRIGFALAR
Description: Inhibitory effect on human renin-sheep renin substrate reaction system in vitro
The mixture was incubated for 15 minutes on a water bath at 37° C., and the reaction mixture was allowed to stand for 5 minutes on a water bath at 100° C. to stop the reaction. After cooling, 200 μl of the solution was taken up and the amount of angiotensin I produced by the addition of renin was determined by radioimmunoassay using renin riabead kit (DAINABOT).
The inhibitory effect was calculated by the following equation.
As a control, the same procedure as above was carried out by using 50 μl of dimethyl sulfoxide alone in place of the 50 μl of dimethyl sulfoxide solution containing an amino acid compound of the present invention. [formula]

[2] = target: T2, renin in human high renin plasma (Homo sapiens, UniProt P00797); assay: Renin inhibitory effect in a human high renin plasma; assay type: biochemical
T2 construct: from tissue; host or cells: human high renin plasma
T2 sequence (P00797 67-406): T1 sequence (P00797 67-406)
Description: Renin Inhibitory Effect in a Human High Renin Plasma
Two hundred μl of the mixture was placed on an ice bath, at 4° C., and remaining mixture (800 μl) was incubated for 60 minutes at 37° C. on a water bath. Two hundred μl of the incubated remaining mixture was chilled immediately on an ice bath, and the amount (A) of angiotensin I produced was determined by radioimmunoassay using renin riabead kit (DAINABOT).
The amount (B) of angiotensin I in the mixture placed on an ice bath at 4° C. was also determined by radioimmunoassay.
As a control, the same procedure as above was carried out by using 100 μl of dimethyl sulfoxide alone in place of 100 μl of dimethyl sulfoxide solution containing an amino acid compound of the present invention.
The net amount was estimated as the difference between A and B.
The inhibitory effect was calculated by the following equation. [formula]

[3] = target: T3, plasma renin activity (Callithrix jacchus, UniProt Q9TSZ1); assay: Renin inhibitory effect in plasma on common marmoset (plasma renin activity after oral dosing); assay type: in vivo; settings: 30 mg/kg oral single dose, furosemide-treated conscious marmosets, control 43.16
T3 construct: from tissue; host or cells: plasma of furosemide-treated conscious male common marmosets
T3 sequence (Q9TSZ1 61-400): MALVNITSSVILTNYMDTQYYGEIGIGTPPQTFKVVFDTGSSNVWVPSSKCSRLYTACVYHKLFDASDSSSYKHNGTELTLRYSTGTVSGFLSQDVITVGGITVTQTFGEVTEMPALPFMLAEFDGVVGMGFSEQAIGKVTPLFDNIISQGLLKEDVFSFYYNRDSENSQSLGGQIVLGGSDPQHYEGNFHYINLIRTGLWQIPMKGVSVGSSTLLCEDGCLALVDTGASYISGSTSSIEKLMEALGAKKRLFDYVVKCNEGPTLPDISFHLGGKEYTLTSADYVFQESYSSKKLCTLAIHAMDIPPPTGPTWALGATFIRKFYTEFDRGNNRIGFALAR
Description: Renin Inhibitory Effect in Plasma on Common Marmoset
The experiment was carried out by using common marmoset as described in K. G. Hofbauer et al., CLINICAL AND EXPERIMENTAL HYPERTENSION, Vol. A5, Nos. 7 & 8 (1983), pages 1237-1247.
Furosemide was administered orally three times to common marmoset having a lower salt diet at 15 mg per kilogram per day every other day to create a high renin state. The experiment was carried out on the third day after the last furosemide dose.
Three conscious male marmosets weighing 310-460 g were placed into small restraining chair, and by using a catheter into the femoral artery, blood collecting was carried out at intervals of 60, 180 and 300 minutes.
Collected blood samples were centrifuged at 1200×g for 15 minutes at 4° C. Two hundred μl of the plasma was taken up and incubated for 60 minutes at 37° C., and the plasma renin activity was measured by radioimmunoassay using renin riabead kit (DAINABOT).
Compound A of this invention was dissolved in dilute hydrochloric acid, and administered orally at single dose of 30 mg/kg using catheter.

[4] = Hypotensive effect in marmoset (tail cuff blood pressure, high renin state); assay type: in vivo, common marmoset; settings: 30 mg/kg oral, conscious high renin marmoset, control 99.7
Description: Hypotensive Effect in Marmoset
The experiment was carried out by using common marmoset as described in K. G. Hofbauer et al., Clinical and Experimental Hypertension, Vol. A5, Nos. 7 & 8 pages 1237-1247.
Furosemide was administered orally three times to common marmoset at 15 mg per kilogram per day every other day to create a high renin state. Blood pressure of conscious marmoset was measured on the third day after the last furosemide dose.
A conscious male marmoset weighing 340 g was placed into small restraining chair. Blood pressure was measured on the tail cuff method using pretismograph. Compound A of this invention was dissolved in dilute hydrochloric acid, and administered orally at 30 mg/kg by using a catheter.

Structure (SMILES): CC(C)OC(=O)C(O)[C@H](CC1CCCCC1)NC(=O)[C@H](Cc1c[nH]cn1)NC(=O)C(Cc1ccccc1F)Cc1ccccc1F (mixture of isomers) [Compound A, (2RS, 3S)-3-{N-[Bis(2-fluorobenzyl)acetyl]-L-histidyl}amino-4-cyclohexyl-2-hydroxybutyric acid isopropyl ester]
- IC50 [1]: 9.4 nM
- IC50 [2]: 130 nM
- PRA ([3]; 60 minutes after administration): 30.35 ng angiotensin I/ml/hr
- PRA ([3]; 180 minutes after administration): 18.89 ng angiotensin I/ml/hr
- PRA ([3]; 300 minutes after administration): 22.93 ng angiotensin I/ml/hr
- Blood pressure ([4]; 0.5 hours after administration): 94.7 mmHg
- Blood pressure ([4]; 1 hour after administration): 86.2 mmHg
- Blood pressure ([4]; 2 hours after administration): 89.7 mmHg
- Blood pressure ([4]; 3 hours after administration): 86.2 mmHg
- Blood pressure ([4]; 5 hours after administration): 85.7 mmHg
